Data: US20250236599A1, “LIPID NANOPARTICLES FOR OLIGONUCLEOTIDE DELIVERY” (ZIPHIUS NV, priority 2021, published 2025)

What was measured:
[1] = Weight evolution of the animals following administration of LNPs; format: in vivo; conditions: female SWISS mice
Description: (§1) Female SWISS mice (6 weeks old) were purchased from Janvier Laboratories (Paris, France) and kept in individually ventilated cages with access to food and water ad libitum. Mice were anesthetized with isoflurane (Zoetis, Louvain-La-Neuve, Belgium) (5% for induction and 2% for maintenance) and intramuscularly injected with a total of 1 μg in 100 μL Tris-HCL (50 μL per leg) LNP-formulated luciferase saRNA (for each group n=7). The expression of the luciferase induced bioluminescence was measured via non-invasive In vivo bioluminescent imaging (In vivo Imaging System (IVIS) Lumina III, Perkin Elmer, Waltham, Massachusetts, USA), 10 minutes after subcutaneous injection of […] of D-luciferin (GoldBio, Saint Louis, Missouri, USA, #LUCK-1G) were measured in day 0 (before injection), day 1, day 3, day 5, day 7, day 10, day 15 and day 20.

[2] = test system: expression of the luciferase saRNA; assay: In vivo bioluminescent imaging after intramuscular injection of LNP-formulated luciferase saRNA; conditions: 1 μg LNP-formulated luciferase saRNA intramuscularly, female SWISS mice
Description: as §1

[3] = LNP particle size, polydispersity index and charge by Zeta Sizer; format: physicochemical; conditions: LNP lipid:DOPE:Cholesterol:DMG-PEG 35:20:43.5:1.5, firefly luciferase saRNA; for Polydispersity Index (PI) / Z-average (nm): N/P approx. 40/1
Description: Cationic lipids, DOPE, Cholesterol and DMG-PEG lipid were solubilized in ethanol or DMSO at a molar ratio of 35:20:43.5:1.5 and a concentration of 100:25:20:25 μg/μL for C12-200 or 170:25:20:25 μg/μL for the comparator lipids. Lipid nanoparticles (LNP) were prepared by targeting an N/P ratio of approximately 40/1 with saRNA. Briefly, the firefly luciferase saRNA of approximately 9659 nucleotides was diluted to 0.5 mg/mL in 5 mM citrate buffer, pH 4.5. Microfluidic mixer (Ignite from Precision Nanosystems, California, USA) was used to mix the lipid solution with the saRNA aqueous solution at a ratio of about 1:3 (vol/vol) with total flow rates above 10 ml/min. The ethanol was then removed, and the external buffer replaced with 10 mM TRIS-HCL, PH 7.4, by dialysis. Finally, the lipid nanoparticles were filtered through a 0.2 μm pore sterile filter. Lipid nanoparticle particle size was 50-150 nm diameter and polydispersity index (PI) of 0.1-0.4 as determined by Zeta Sizer (Malvern Panalytical, UK). The charge of the formulation was also measured by Zeta Sizer and ranged between 20 to −20 mV.

[4] = saRNA loading / encapsulation efficiency, Quant-IT RiboGreen assay; format: physicochemical; conditions: LNP lipid:DOPE:Cholesterol:DMG-PEG 35:20:43.5:1.5, firefly luciferase saRNA
Description: The saRNA loading in LNP formulations was quantified using a Quant-IT RiboGreen assay (Thermo Fisher Scientific, Waltham, Massachusetts, USA) as previously described. 14 samples were diluted tenfold in 1x Tris HCL-EDTA (TE) buffer (10 mM Tris-HCL, 1 mM EDTA, pH 7.5) with or without 2% (v/v) Triton X-100 (Sigma-Aldrich, Saint Louis, Missouri, USA). Standard solutions were also prepared in 1xTE with or without 2% (v/v) Triton X-100 to account for any variation in fluorescence. The assay was performed according to the manufacturer's protocol. Samples were loaded on a black 96-well plate and analysed for fluorescence on a microplate reader (Tecan Infinite® 200 PRO) at an excitation of 485 nm and emission at 528 nm. Encapsulation efficiency was calculated between 80-100%.

[5] = Day 1, 1 μg LNP-formulated saRNA intramuscularly
[6] = Day 3, 1 μg LNP-formulated saRNA intramuscularly
[7] = Day 5, 1 μg LNP-formulated saRNA intramuscularly
[8] = Day 7, 1 μg LNP-formulated saRNA intramuscularly
[9] = Day 10, 1 μg LNP-formulated saRNA intramuscularly
[10] = Day 15, 1 μg LNP-formulated saRNA intramuscularly
[11] = Day 20, 1 μg LNP-formulated saRNA intramuscularly

| SMILES | Weight ([1]; Day 0) | Weight [1, 5] | Weight [1, 6] | Weight [1, 7] | Weight [1, 8] | Weight [1, 9] | Weight [1, 10] | Weight [1, 11] | Zetapotential (mV) [3] | Polydispersity Index (PI) [3] | Z-average (nm) [3] | Encapsulation (%) [4] | Bioluminescence expression of LNPs ([2]; Day 1) | Bioluminescence expression of LNPs ([2]; Day 3) | Bioluminescence expression of LNPs ([2]; Day 5) | Bioluminescence expression of LNPs ([2]; Day 7) | Bioluminescence expression of LNPs ([2]; Day 10) | Bioluminescence expression of LNPs ([2]; Day 15) | Bioluminescence expression of LNPs ([2]; Day 20) |
| --- | --- | --- | --- | --- | --- | --- | --- | --- | --- | --- | --- | --- | --- | --- | --- | --- | --- | --- | --- |
| CCCCCCC(CCCC)C(=O)OCCN(CCOC(=O)C(CCCC)CCCCCC)CCN1CCN(CCN(CCOC(=O)C(CCCC)CCCCCC)CCOC(=O)C(CCCC)CCCCCC)CC1 (stereo not drawn) [Compound 9-32, ((piperazine-1,4-diylbis(ethane-2,1-diyl))bis(azanetriyl))tetrakis(ethane-2,1-diyl) tetrakis(2-butyloctanoate)] | 27.00 g | 26.94 g | 28.46 g | 28.26 g | 28.11 g | 27.91 g | 29.69 g | 30.94 g | −16.38 mV | 0.17 | 54.53 nm | 93.33% | 5.13E+06 | 1.31E+08 | 2.76E+08 | 3.71E+08 | 1.08E+07 | 6.35E+05 | 1.29E+05 |
| CCCCCCC(CCCC)C(=O)OCCCCCCN(CCCCCCOC(=O)C(CCCC)CCCCCC)CCN1CCN(CCN(CCCCCCOC(=O)C(CCCC)CCCCCC)CCCCCCOC(=O)C(CCCC)CCCCCC)CC1 (stereo not drawn) [Compound 9-34, ((piperazine-1,4-diylbis(ethane-2,1-diyl))bis(azanetriyl))tetrakis(hexane-6,1-diyl) tetrakis(2-butyloctanoate)] | 27.77 g | 26.14 g | 28.33 g | 28.51 g | 28.49 g | 28.97 g | 30.24 g | 31.51 g | −7.92 mV | 0.16 | 71.78 nm | 94.93% | 4.79E+07 | 7.26E+08 | 7.42E+08 | 9.12E+08 | 4.70E+07 | 1.43E+05 | 3.37E+04 |

Continued, in another order:

| Weight ([1]; Day 0) | Weight [1, 5] | Weight [1, 6] | Weight [1, 7] | Weight [1, 8] | Weight [1, 9] | Weight [1, 10] | Weight [1, 11] | Zetapotential (mV) [3] | Polydispersity Index (PI) [3] | Z-average (nm) [3] | Encapsulation (%) [4] | SMILES | Bioluminescence expression of LNPs ([2]; Day 1) | Bioluminescence expression of LNPs ([2]; Day 3) | Bioluminescence expression of LNPs ([2]; Day 5) | Bioluminescence expression of LNPs ([2]; Day 7) | Bioluminescence expression of LNPs ([2]; Day 10) | Bioluminescence expression of LNPs ([2]; Day 15) | Bioluminescence expression of LNPs ([2]; Day 20) |
| --- | --- | --- | --- | --- | --- | --- | --- | --- | --- | --- | --- | --- | --- | --- | --- | --- | --- | --- | --- |
| 29.09 g | 29.49 g | 31.49 g | 30.09 g | 30.36 g | 30.56 g | 31.33 g | 32.30 g | −10.52 mV | 0.20 | 105.70 nm | 96.25% | CCCCCCCCC(CCCCCC)C(=O)OCCCCN(CCCCOC(=O)C(CCCCCC)CCCCCCCC)CCN1CCN(CCN(CCCCOC(=O)C(CCCCCC)CCCCCCCC)CCCCOC(=O)C(CCCCCC)CCCCCCCC)CC1 (stereo not drawn) [Compound 9-36, ((piperazine-1,4-diylbis(ethane-2,1-diyl))bis(azanetriyl))tetrakis(butane-4,1-diyl) tetrakis(2-hexyldecanoate)] | 4.28E+06 | 1.92E+08 | 8.44E+08 | 6.10E+08 | 5.56E+06 | 2.57E+05 | 1.16E+05 |
| 28.21 g | 26.73 g | 28.81 g | 28.84 g | 28.84 g | 29.36 g | 30.63 g | 31.61 g | −9.93 mV | 0.27 | 89.43 nm | 92.32% | CCCCCCCCC(CCCCCC)C(=O)OCCCCCCN(CCCCCCOC(=O)C(CCCCCC)CCCCCCCC)CCN1CCN(CCN(CCCCCCOC(=O)C(CCCCCC)CCCCCCCC)CCCCCCOC(=O)C(CCCCCC)CCCCCCCC)CC1 (stereo not drawn) [Compound 9-37, ((piperazine-1,4-diylbis(ethane-2,1-diyl))bis(azanetriyl)) tetrakis(hexane-6,1-diyl) tetrakis(2-hexyldecanoate)] | 1.07E+07 | 2.06E+08 | 4.17E+08 | 3.54E+08 | 2.11E+06 | 7.50E+04 | 2.65E+04 |
| 29.39 g | 28.23 g | 29.73 g | 29.77 g | 30.46 g | 31.20 g | 30.96 g | 32.00 g | −8.56 mV | 0.17 | 115.36 nm | 94.22% | CCCCCCCCC(CCCCCC)C(=O)OCCCCN(CCCCOC(=O)C(CCCCCC)CCCCCCCC)CCN(CCCCOC(=O)C(CCCCCC)CCCCCCCC)CCN1CCN(CCN(CCCCOC(=O)C(CCCCCC)CCCCCCCC)CCCCOC(=O)C(CCCCCC)CCCCCCCC)CC1 (stereo not drawn) [Compound 9-30, ((2-(4-(2-((2-(bis(4-((2-hexyldecanoyl)oxy)butyl)amino)ethyl) (4-((2-hexyldecanoyl)oxy)butyl)amino)ethyl)piperazin-1-yl)ethyl)azanediyl) bis(butane-4,1-diyl)bis(2-hexyldecanoate)] | 2.31E+06 | 2.87E+07 | 6.18E+07 | 9.09E+07 | 2.84E+07 | 1.67E+05 | 1.67E+05 |
| 27.51 g | 26.21 g | 28.67 g | 28.56 g | 29.01 g | 29.61 g | 30.77 g | 31.87 g | −10.65 mV | 0.18 | 65.27 nm | 93.93% | CCCCCCC(CCCC)C(=O)OCCCCN(CCCCOC(=O)C(CCCC)CCCCCC)CCN(CCCCOC(=O)C(CCCC)CCCCCC)CCN1CCN(CCN(CCCCOC(=O)C(CCCC)CCCCCC)CCCCOC(=O)C(CCCC)CCCCCC)CC1 (stereo not drawn) [Compound 9-27, ((2-(4-(2-((2-(bis(4-((2-butyloctanoyl)oxy)butyl)amino)ethyl) (4-((2-butyloctanoyl)oxy)butyl)amino)ethyl)piperazin-1-yl)ethyl)azanediyl) bis(butane-4,1-diyl)bis(2-butyloctanoate)] | 4.09E+07 | 1.51E+09 | 1.35E+09 | 9.33E+08 | 2.88E+06 | 2.77E+05 | 1.87E+05 |
